In ChEMBL document CHEMBL5625183, “Discovery of a novel dual-target inhibitor of CDK12 and PARP1 that induces synthetic lethality for treatment of triple-negative breast cancer” (Eur J Med Chem, 2023):
Active and inactive are the calls of the source. No cut-off for these calls is given here.

Legend:
MDA-MB-436 [1] = assay: Induction of cell cycle arrest in human MDA-MB-436 cells assessed as accumulation of cells at G1 phase at 5 uM measured after 24 hrs by PI staining based cytometry analysis (reference value: 72.04%); assay type: functional
MDA-MB-468 [2] = assay: Induction of apoptosis in human MDA-MB-468 cells assessed as upregulation of Bax expression incubated for 24 hrs; assay type: functional, cell-based; settings: dose 5-20 µM
MDA-MB-231 [3] = assay: Inhibition of cell migration in human MDA-MB-231 cells assessed as upregulation of E-cadherin level by measuring fluorescence intensity at 10 uM incubated for 24 hrs by confocal microscopic analysis; assay type: functional, cell-based
[4] = Clearance in Sprague-Dawley rat at 1 mg/kg, iv measured upto 24 hrs by LC-MS/MS analysis; assay type: ADME, organism-based; settings: in vivo
MDA-MB-231 [5] = assay: Induction of cell cycle arrest in human MDA-MB-231 cells assessed as accumulation of cells at S phase at 10 uM measured after 24 hrs by PI staining based cytometry analysis (reference value: 23.01 %); assay type: functional
MDA-MB-231 [6] = assay: Upregulation of gamma-H2AX expression in human MDA-MB-231 cells incubated for 24 hrs by Western blot analysis; assay type: functional, cell-based; settings: dose <= 20.0 µM
[7] = Metabolic stability in human liver microsome assessed as half life in presence of NADPH incubated upto 60 mins by LC-MS/MS analysis; assay type: ADME; settings: liver microsomes
[8] = biological target: T1, Cyclin-dependent kinase 1 (Homo sapiens, UniProt P06493); assay: Inhibition of CDK1 (unknown origin)
Target sequence in this assay (P06493 whole entry): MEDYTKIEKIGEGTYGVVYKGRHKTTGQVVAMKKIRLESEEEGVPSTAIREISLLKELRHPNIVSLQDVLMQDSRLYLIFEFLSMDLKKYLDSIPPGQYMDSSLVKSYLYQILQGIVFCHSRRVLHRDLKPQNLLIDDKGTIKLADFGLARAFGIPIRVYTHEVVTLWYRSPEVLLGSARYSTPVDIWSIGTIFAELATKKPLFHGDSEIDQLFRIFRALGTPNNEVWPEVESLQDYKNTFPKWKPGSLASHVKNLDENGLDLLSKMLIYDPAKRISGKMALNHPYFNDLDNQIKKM

MDA-MB-468 [9] = assay: Induction of apoptosis in human MDA-MB-468 cells assessed as downregulation of Bcl-2 expression incubated for 24 hrs; assay type: functional, cell-based; settings: dose 5-20 µM
[10] = biological target: MAP kinase-activated protein kinase 2 (Homo sapiens) (UniProt P49137); assay: Inhibition of MAPK2 (unknown origin) at 1 uM relative to control
MDA-MB-231 [11] = assay: Antiproliferative activity against human MDA-MB-231 cells assessed as decrease in number of colony formation at 10 uM measured after 24 days by crystal violet staining based analysis; assay type: functional, cell-based; settings: time 24.0 day
MDA-MB-231 [12] = assay: Antiproliferative activity against human MDA-MB-231 cells transfected with wild type PARP1 and CDK12 M816A mutant incubated for 24 hrs by MTT assay; assay type: functional, cell-based
MDA-MB-231 [13] = assay: […] DNA repair in human MDA-MB-231 cells assessed as decrease in RAD51 level at 10 uM incubated for 24 hrs by confocal laser scanning microscopic analysis; assay type: functional, cell-based
[14] = biological target: T2, Cyclin-dependent kinase 12 (Homo sapiens, UniProt Q9NYV4); assay: Inhibition of CDK12 in human MDA-MB-436 cells assessed as effect on Pol II CTD at ser5 residue phosphorylation incubated for 24 hrs; assay type: cell-based; settings: dose 5-20 µM
MDA-MB-468 [15] = assay: Inhibition of cell migration in human MDA-MB-468 cells at 10 uM incubated for 24 hrs by transwell assay; assay type: functional, cell-based
[16] = Metabolic stability in BALB/c mouse liver microsome assessed as half life in presence of NADPH incubated upto 60 mins by LC-MS/MS analysis; assay type: ADME; settings: liver microsomes
MDA-MB-468 [17] = assay: Antiproliferative activity against human MDA-MB-468 cells assessed as reduction in EDU-positive cells at 10 uM […]-staining based analysis; assay type: functional, cell-based
[18] = biological target: T2, Cyclin-dependent kinase 12; assay: Inhibition of CDK12 in human MDA-MB-436 cells assessed as effect on Pol II CTD at ser7 residue phosphorylation incubated for 24 hrs; assay type: cell-based; settings: dose 5-20 µM
MDA-MB-231 [19] = assay: Induction of cell cycle arrest in human MDA-MB-231 cells assessed as accumulation of cells at G1 phase at 10 uM measured after 24 hrs by PI staining based cytometry analysis (reference value: 68.55%); assay type: functional
MDA-MB-231 [20] = assay: Induction of cell cycle arrest in human MDA-MB-231 cells assessed as accumulation of cells at G2 phase at 5 uM measured after 24 hrs by PI staining based cytometry analysis (reference value: 8.44 %); assay type: functional
MDA-MB-436 [21] = assay: Induction of cell cycle arrest in human MDA-MB-436 cells assessed as accumulation of cells at S phase at 5 uM measured after 24 hrs by PI staining based cytometry analysis (reference value: 25.43%); assay type: functional
[22] = biological target: T1, Cyclin-dependent kinase 1; assay: Inhibition of CDK1 (unknown origin) at 1 uM relative to control
Target sequence in this assay (P06493 whole entry, looked up): as the sequence (P06493 whole entry) above

[23] = biological target: Poly [ADP-ribose] polymerase 1 (Homo sapiens, UniProt P09874); assay: Inhibition of PARP1 (unknown origin) incubated for 1 hr by ELISA analysis
Mus musculus [24] = assay: In-vivo induction of DNA damage in ip dosed BALB/c mouse assessed as downregulation of RAD51 level in tumor administered once daily for 16 days by Western blot analysis; assay type: functional, organism-based; settings: dose 20-80 mg/kg, time 16.0 day
[25] = Half life in Sprague-Dawley rat 1 mg/kg, iv measured upto 24 hrs by LC-MS/MS analysis; assay type: ADME, organism-based; settings: in vivo
MDA-MB-231 [26] = assay: Inhibition of cell migration in human MDA-MB-231 cells assessed as downregulation of MMP-2 level by measuring fluorescence intensity at 10 uM incubated for 24 hrs by confocal microscopic analysis; assay type: functional, cell-based
Mus musculus [27] = assay: In-vivo inhibition of CDK12-PARP1 in BALB/c mouse assessed as downregulation of PAR expression in tumor at 20 to 80 mg/kg, ip administered once daily for 16 days by Western blot analysis; assay type: functional, organism-based; settings: dose 20-80 mg/kg, time 16.0 day
MDA-MB-231 [28] = assay: Induction of cell cycle arrest in human MDA-MB-231 cells assessed as accumulation of cells at S phase at 20 uM measured after 24 hrs by PI staining based cytometry analysis (reference value: 23.01 %); assay type: functional
MDA-MB-468 [29] = assay: Induction of […] in human MDA-MB-468 cells assessed as increase in gamma-H2AX foci formation at 10 uM incubated for 24 hrs by confocal laser scanning microscopic analysis; assay type: functional, cell-based
[30] = biological target: T2, Cyclin-dependent kinase 12; assay: Inhibition of CDK12 in human MDA-MB-231 cells assessed as effect on Pol II CTD at ser5 residue phosphorylation incubated for 24 hrs; assay type: cell-based; settings: dose 5-20 µM
MDA-MB-436 [31] = assay: Induction of cell cycle arrest in human MDA-MB-436 cells assessed as accumulation of cells at G1 phase at 10 uM measured after 24 hrs by PI staining based cytometry analysis (reference value: 72.04%); assay type: functional
[32] = AUC (0 to t) in Sprague-Dawley rat at 1 mg/kg, iv measured upto 24 hrs by LC-MS/MS analysis; assay type: ADME, organism-based; settings: in vivo
MDA-MB-231 [33] = assay: Induction of cell cycle arrest in human MDA-MB-231 cells assessed as accumulation of cells at G1 phase at 5 uM measured after 24 hrs by PI staining based cytometry analysis (reference value: 68.55%); assay type: functional
[34] = Metabolic stability in BALB/c mouse liver microsome assessed as intrinsic clearance in presence of NADPH incubated upto 60 mins by LC-MS/MS analysis; assay type: ADME; settings: liver microsomes, read-out: CLH
MDA-MB-436 [35] = assay: Induction of cell cycle arrest in human MDA-MB-436 cells assessed as accumulation of cells at G2 phase at 10 uM measured after 24 hrs by PI staining based cytometry analysis (reference value: 2.54%); assay type: functional
[36] = biological target: Vascular endothelial growth factor receptor 3 (Homo sapiens) (UniProt P35916); assay: Inhibition of FLT4 (unknown origin) at 1 uM relative to control
Chain of Vascular endothelial growth factor receptor 3 (Homo sapiens) (P35916 whole entry): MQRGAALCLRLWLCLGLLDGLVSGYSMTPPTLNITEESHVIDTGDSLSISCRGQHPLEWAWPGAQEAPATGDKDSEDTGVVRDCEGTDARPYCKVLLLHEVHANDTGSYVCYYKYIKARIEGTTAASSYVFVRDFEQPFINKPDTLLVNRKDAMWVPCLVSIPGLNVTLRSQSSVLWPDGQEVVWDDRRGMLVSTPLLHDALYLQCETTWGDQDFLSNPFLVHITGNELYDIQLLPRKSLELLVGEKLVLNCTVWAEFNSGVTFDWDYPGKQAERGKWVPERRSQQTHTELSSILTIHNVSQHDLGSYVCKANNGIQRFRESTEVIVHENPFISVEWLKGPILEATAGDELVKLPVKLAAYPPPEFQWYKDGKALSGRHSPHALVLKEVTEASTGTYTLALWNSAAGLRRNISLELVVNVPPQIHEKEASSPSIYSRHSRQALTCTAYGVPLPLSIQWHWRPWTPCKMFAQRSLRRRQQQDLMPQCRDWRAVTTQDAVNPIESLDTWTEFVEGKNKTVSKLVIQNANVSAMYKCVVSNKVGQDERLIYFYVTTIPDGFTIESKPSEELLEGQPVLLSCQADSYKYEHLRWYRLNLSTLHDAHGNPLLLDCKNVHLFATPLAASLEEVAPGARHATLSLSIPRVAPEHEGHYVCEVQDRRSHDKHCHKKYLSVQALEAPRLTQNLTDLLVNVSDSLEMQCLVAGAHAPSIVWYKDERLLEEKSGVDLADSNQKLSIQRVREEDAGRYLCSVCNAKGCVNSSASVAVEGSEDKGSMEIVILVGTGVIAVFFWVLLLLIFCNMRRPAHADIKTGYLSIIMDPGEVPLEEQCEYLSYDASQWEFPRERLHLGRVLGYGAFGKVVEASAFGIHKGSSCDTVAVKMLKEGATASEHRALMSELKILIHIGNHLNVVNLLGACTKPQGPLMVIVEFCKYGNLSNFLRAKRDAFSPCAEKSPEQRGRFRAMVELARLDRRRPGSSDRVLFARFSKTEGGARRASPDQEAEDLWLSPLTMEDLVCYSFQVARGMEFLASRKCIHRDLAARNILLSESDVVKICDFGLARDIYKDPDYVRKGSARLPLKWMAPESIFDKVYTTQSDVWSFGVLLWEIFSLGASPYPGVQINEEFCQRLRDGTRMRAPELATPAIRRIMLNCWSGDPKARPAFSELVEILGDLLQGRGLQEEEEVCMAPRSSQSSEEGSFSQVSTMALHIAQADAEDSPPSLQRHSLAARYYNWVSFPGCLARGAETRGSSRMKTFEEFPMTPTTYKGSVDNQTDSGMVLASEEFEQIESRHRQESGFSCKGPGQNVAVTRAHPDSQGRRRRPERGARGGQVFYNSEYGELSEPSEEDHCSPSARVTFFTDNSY

T2 sequence (Q9NYV4 whole entry, looked up): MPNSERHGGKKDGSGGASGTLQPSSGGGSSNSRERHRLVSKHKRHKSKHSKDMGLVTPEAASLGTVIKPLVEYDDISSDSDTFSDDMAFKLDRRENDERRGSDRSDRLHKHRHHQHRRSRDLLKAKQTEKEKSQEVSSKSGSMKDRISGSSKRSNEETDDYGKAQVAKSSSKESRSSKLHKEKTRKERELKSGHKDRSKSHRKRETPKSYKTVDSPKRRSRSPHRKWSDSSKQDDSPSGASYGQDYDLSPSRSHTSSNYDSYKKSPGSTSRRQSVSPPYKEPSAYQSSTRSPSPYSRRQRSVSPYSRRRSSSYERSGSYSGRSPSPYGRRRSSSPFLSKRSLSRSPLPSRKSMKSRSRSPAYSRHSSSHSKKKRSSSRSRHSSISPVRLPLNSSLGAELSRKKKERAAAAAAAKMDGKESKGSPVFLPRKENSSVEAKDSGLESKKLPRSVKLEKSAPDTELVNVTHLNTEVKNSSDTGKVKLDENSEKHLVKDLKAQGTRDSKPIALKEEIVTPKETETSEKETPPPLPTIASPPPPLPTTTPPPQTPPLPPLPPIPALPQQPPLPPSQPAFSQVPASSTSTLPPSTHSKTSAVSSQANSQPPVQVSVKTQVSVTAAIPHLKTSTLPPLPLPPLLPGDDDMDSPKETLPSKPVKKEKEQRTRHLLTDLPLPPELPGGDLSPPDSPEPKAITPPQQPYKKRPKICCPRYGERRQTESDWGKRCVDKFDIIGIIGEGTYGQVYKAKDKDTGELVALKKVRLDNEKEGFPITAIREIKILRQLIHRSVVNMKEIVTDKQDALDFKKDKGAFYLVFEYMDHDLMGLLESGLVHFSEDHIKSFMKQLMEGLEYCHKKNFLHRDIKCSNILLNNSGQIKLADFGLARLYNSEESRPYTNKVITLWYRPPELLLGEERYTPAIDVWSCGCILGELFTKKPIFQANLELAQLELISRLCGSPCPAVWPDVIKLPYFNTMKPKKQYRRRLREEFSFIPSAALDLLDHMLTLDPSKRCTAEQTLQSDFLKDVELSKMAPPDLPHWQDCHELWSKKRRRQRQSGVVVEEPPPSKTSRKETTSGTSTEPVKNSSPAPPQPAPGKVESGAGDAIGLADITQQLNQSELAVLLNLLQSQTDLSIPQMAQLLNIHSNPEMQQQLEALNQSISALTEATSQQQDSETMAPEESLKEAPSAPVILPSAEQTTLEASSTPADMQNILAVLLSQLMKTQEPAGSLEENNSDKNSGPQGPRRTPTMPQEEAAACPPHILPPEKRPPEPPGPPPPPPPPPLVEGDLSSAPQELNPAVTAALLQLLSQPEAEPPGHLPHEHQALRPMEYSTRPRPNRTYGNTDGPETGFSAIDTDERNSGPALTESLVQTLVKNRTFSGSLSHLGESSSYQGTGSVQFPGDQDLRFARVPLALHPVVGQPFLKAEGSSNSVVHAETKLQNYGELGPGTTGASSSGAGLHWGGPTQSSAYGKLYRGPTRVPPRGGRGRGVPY
Chain of Poly [ADP-ribose] polymerase 1 (P09874 whole entry): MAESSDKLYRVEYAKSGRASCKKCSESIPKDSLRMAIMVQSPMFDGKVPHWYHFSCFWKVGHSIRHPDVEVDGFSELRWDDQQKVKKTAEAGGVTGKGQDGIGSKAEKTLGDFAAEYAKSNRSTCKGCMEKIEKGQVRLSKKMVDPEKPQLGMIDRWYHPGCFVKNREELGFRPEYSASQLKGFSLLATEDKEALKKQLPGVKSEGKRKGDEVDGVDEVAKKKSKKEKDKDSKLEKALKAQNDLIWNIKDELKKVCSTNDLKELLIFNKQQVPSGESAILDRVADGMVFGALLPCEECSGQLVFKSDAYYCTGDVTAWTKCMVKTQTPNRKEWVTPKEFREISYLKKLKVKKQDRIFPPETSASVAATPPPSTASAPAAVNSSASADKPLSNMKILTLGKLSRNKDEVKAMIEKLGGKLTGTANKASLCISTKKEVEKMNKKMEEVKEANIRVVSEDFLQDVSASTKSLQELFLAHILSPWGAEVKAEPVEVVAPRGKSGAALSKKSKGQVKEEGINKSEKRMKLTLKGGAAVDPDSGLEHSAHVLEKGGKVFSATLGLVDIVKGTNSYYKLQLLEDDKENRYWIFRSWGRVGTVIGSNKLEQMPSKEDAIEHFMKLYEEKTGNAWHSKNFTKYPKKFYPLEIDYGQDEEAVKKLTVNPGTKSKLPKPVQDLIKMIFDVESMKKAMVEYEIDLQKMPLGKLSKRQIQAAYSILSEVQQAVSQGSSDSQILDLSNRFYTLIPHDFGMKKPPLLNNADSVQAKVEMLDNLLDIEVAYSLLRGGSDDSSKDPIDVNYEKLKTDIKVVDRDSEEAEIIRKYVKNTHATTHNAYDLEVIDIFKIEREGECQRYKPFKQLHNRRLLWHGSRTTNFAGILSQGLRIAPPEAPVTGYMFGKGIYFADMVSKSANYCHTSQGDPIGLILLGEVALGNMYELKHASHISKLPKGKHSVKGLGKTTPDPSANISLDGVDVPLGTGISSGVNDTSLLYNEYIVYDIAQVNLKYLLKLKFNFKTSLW
Chain of MAP kinase-activated protein kinase 2 (Homo sapiens) (P49137 whole entry, looked up): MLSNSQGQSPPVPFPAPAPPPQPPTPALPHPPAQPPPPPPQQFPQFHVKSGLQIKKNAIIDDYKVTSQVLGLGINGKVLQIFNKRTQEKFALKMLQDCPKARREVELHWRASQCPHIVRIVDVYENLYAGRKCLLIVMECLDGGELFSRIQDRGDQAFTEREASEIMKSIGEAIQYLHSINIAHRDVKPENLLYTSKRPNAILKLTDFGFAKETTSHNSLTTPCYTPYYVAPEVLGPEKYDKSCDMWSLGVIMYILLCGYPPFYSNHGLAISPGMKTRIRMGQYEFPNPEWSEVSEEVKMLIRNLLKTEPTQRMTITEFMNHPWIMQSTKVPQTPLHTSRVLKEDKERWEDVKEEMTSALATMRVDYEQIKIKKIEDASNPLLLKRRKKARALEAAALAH

clearance [4]: 12.5 mL/min/kg
half-life [7]: 3.51 h
IC50 [8]: 517 nM
inhibition [10]: > 60%
inhibition [14]: Dose-Dependent Effect
half-life [16]: 1.88 h
inhibition [18]: Dose-Dependent Effect
inhibition [22]: > 60%
IC50 [23]: 34 nM
half-life [25]: 3 h
inhibition [30]: Dose-Dependent Effect
AUC(0-t) at 24 h [32]: 1250 ng·h/mL
CLint scaled [34]: 48.5 mL/min/kg
inhibition [36]: > 60%
SMILES: NC(=O)c1cccc2[nH]c(NC(=O)c3cccc(C(=O)N4CCC(Nc5ncc(I)cn5)CC4)c3)nc12
Activity (MDA-MB-436 [1]): 69.11%
Activity (MDA-MB-468 [2]): Dose-Dependent Effect
inhibition (MDA-MB-231 [3]): Active
Activity (MDA-MB-231 [5]): 17.93%
Activity (MDA-MB-231 [6]): Dose-Dependent Effect
Activity (MDA-MB-468 [9]): Dose-Dependent Effect
Activity (MDA-MB-231 [11]): Active
Activity (MDA-MB-231 [12]): Active
Activity (MDA-MB-231 [13]): Active
inhibition (MDA-MB-468 [15]): Active
Activity (MDA-MB-468 [17]): Active
Activity (MDA-MB-231 [19]): 61.71%
Activity (MDA-MB-231 [20]): 16.84%
Activity (MDA-MB-436 [21]): 26.5%
Activity (Mus musculus [24]): Dose-Dependent Effect
inhibition (MDA-MB-231 [26]): Active
inhibition (Mus musculus [27]): Active
Activity (MDA-MB-231 [28]): 17.32%
Activity (MDA-MB-468 [29]): Active
Activity (MDA-MB-436 [31]): 66.94%
Activity (MDA-MB-231 [33]): 63.3%
Activity (MDA-MB-436 [35]): 7.35%
